Data: patent US20140051730A1, “THERAPEUTIC USE OF DIMIRACETAM TO PREVENT THE HAND AND FOOT SYNDROME CAUSED BY SORAFENIB” (NEUROTUNE AG, priority 2010, published 2014)

How the values were obtained:
[1] = Blood levels in healthy volunteers during Phase I studies; format: in vivo; details: 1600 bid dose (3200 mg daily)
Description: Blood levels were determined in healthy volunteers during Phase I studies.
The blood levels were determined for 1600 bid dose (i.e. 3200 mg daily).

[2] = test system: sorafenib induced allodynia; test: Chronic experiment: rat cold plate test, sorafenib induced allodynia; format: in vivo; details: for Licking latency, Before all Treatments: baseline, mean of 8 rats
Description: 1986 (86/609/EEC) for experimental animal care.
Dimiracetam, duloxetine and gabapentin were dissolved in water.
Sorafenib was dissolved in a vehicle constituted by 1% ethanol+1% Cremophor+[…]. Sorafenib was administered once daily for 14 days. Dimiracetam was administered by oral gavage twice daily for 14 days (co-administered with sorafenib).
P values≦0.05 were considered significant.

[3] = test system: sorafenib induced allodynia; test: Acute experiment: rat cold plate test, sorafenib allodynia; details: for Acute antiallodynic efficacy on sorafenib induced allodynia (in words): single p.o. dose on day 14: dimiracetam 300, gabapentin 100, duloxetine 30 mg/kg, rat cold plate
Description: Male Sprague Dowley adult rats (200-220 g—aged 7 weeks) were used. Groups of 4 rats were housed in 26 by 41 cm cages that were placed in the experimental room 24 h before the test for acclimatization. The animals were fed a standard laboratory diet and tap water ad libitum and kept at 23±1° C. with a 12 h light/dark cycle, light on at 7 a.m. All experiments were carried out in accordance with the European Communities Council Directive of 24 Nov. 1986 (86/609/EEC) for experimental animal care. All efforts were made to minimize the number of animals used and their suffering.
Dimiracetam, duloxetine and gabapentin were dissolved in water. Drug concentrations were adjusted to a volume of 10 ml/kg for dosing by oral administration or i.p. injection. Sorafenib was dissolved in a vehicle composed by 1% ethanol+1% Cremophor+98% saline for i.p. injection.
Control rats were treated with an equal volume of the sorafenib vehicle. Sorafenib was administered once daily for 14 consecutive days. Dimiracetam, gabapentin and duloxetine were administered once daily on day 14 after sorafenib treatment.
Rats were placed inside a stainless steel container, thermostatically set at 4° C. in a precision water-bath from KW Mechanical Workshop, Siena, Italy. Reaction times (in seconds) were measured with a stop-watch before and at regular intervals; the endpoint used was the licking of the fore or hind paws. An arbitrary cut-off time of 60 s was adopted (see Beyreuther et al., Eur. J. Pharmacol. 565, 98-104, 2007).
All experimental results are given as the mean±S.E.M. An analysis of variance, ANOVA, followed by Fisher's protected least significant difference procedure for post hoc comparison, was used to verify significance between two means of behavioral results. Data were analyzed with the StatView software for the Macintosh (1992). P values≦0.05 were considered significant.

[4] = 15 min after single p.o. dose (dimiracetam 300, gabapentin 100, duloxetine 30 mg/kg) on day 14 of sorafenib 10 mg/kg
[5] = 30 min after single p.o. dose (dimiracetam 300, gabapentin 100, duloxetine 30 mg/kg) on day 14 of sorafenib 10 mg/kg
[6] = 60 min after single p.o. dose (dimiracetam 300, gabapentin 100, duloxetine 30 mg/kg) on day 14 of sorafenib 10 mg/kg
[7] = baseline before all treatments, group later given test drug p.o. + sorafenib 10 mg/kg once daily 14 days, cold plate 4° C., mean ± S.E.M., 5 rats
[8] = day 14 of sorafenib 10 mg/kg, before single p.o. dose of test drug, cold plate 4° C.

For `O=C1CN2C(=O)CCC2N1` (centres unmarked) [DIMIRACETAM, 2,5-dioxohexahydro-1H-pyrrolo[1,2-a]imidazole], the “Blood level, mean minimal level over 24 hours (Cmin)” value [1] was 136 µM, the Cmax ([1]; human, blood, read-out: Blood level, mean maximal level over 24 hours (Cmax)) was 536 µM and the “Licking latency, Before all Treatments” value ([2]; group given dimiracetam 150 mg/kg p.o. b.i.d. + sorafenib 10 mg/kg i.p. once daily 14 days) was 27.3 ± 1.1 s. The “Licking latency, After 14 days of treatment, 1 h” value ([2]; dimiracetam 150 mg/kg p.o. b.i.d. + sorafenib 10 mg/kg i.p. 14 days, 1 h after end of treatment) was 23.8 ± 1.1 s, the “Licking latency, After 14 days of treatment, 4 h” value ([2]; dimiracetam 150 mg/kg p.o. b.i.d. + sorafenib 10 mg/kg i.p. 14 days, 4 h after end of treatment) was 23.3 ± 1.1 s and the “Licking latency, After 14 days of treatment, 8 h” value ([2]; dimiracetam 150 mg/kg p.o. b.i.d. + sorafenib 10 mg/kg i.p. 14 days, 8 h after end of treatment) was 22.8 ± 1.2 s. For the same compound, the “Licking latency, After 14 days of treatment, 24 h” value ([2]; dimiracetam 150 mg/kg p.o. b.i.d. + sorafenib 10 mg/kg i.p. 14 days, 24 h after end of treatment) was 21.9 ± 1.1 s, the “Licking latency, After 14 days of treatment, 48 h” value ([2]; dimiracetam 150 mg/kg p.o. b.i.d. + sorafenib 10 mg/kg i.p. 14 days, 48 h after end of treatment) was 19.0 ± 0.6 ^ s and the “Licking latency, After 14 days of treatment, 72 h” value ([2]; dimiracetam 150 mg/kg p.o. b.i.d. + sorafenib 10 mg/kg i.p. 14 days, 72 h after end of treatment) was 14.9 ± 0.6 s. The “Licking latency, After 14 days of treatment, Pretest” value ([2]; dimiracetam 150 mg/kg p.o. b.i.d. + sorafenib 10 mg/kg i.p. 14 days, before last administration) was 24.3 ± 0.8 s, the “Duration of statistically significant antiallodynic effect after end of treatment” value ([2]; dimiracetam 150 mg/kg p.o. b.i.d. for 14 consecutive days with sorafenib) was “up to 48 h” and the “Chronic antiallodynic effect (in words)” value ([2]; dimiracetam 150 mg/kg p.o. b.i.d. for 14 consecutive days, evaluated on day 14) was “statistically significant antiallodynic effect”. The “Development of tolerance (in words)” value ([2]; general statement, no data given) was “not to develop tolerance”, the “Licking latency, 14° day 15 min” value [3, 4] was 19.8 ± 1.5 s and the “Licking latency, 14° day 30 min” value [3, 5] was 16.0 ± 1.9 s. For the same compound, the “Licking latency, 14° day 60 min” value [3, 6] was 15.4 ± 1.4 s, the “Licking latency, Pre test before all treatments” value [3, 7] was 26.8 ± 3.0 s and the “Licking latency, Pre test before all treatments” value ([3]; baseline, group given sorafenib vehicle i.p. + dimiracetam 300 mg/kg p.o. (no sorafenib)) was 27.2 ± 2.8 s. For the same compound, the “Licking latency, 14° day Pre test” value [3, 8] was 15.8 ± 1.8 s, the “Acute antiallodynic efficacy on sorafenib induced allodynia (in words)” value (shortened to “Acute antiallodynic efficacy”) [3] was “statistically significant effect on sorafenib induced allodynia 15 min after administration” and the “Licking latency, 14° day Pre test” value ([3]; vehicle i.p. 14 days (no sorafenib), before dimiracetam 300 mg/kg p.o.) was 28.4 ± 2.1 s. For the same compound, the “Licking latency, 14° day 15 min” value ([3]; vehicle i.p. (no sorafenib), 15 min after dimiracetam 300 mg/kg p.o.) was 29.0 ± 1.9 s, the “Licking latency, 14° day 30 min” value ([3]; vehicle i.p. (no sorafenib), 30 min after dimiracetam 300 mg/kg p.o.) was 28.2 ± 2.3 s and the “Licking latency, 14° day 60 min” value ([3]; vehicle i.p. (no sorafenib), 60 min after dimiracetam 300 mg/kg p.o.) was 27.2 ± 3.0 s.

For `CNCC[C@H](Oc1cccc2ccccc12)c1cccs1` [DULOXETINE, duloxetine], the “Licking latency, 14° day 15 min” value [3, 4] was 14.2 ± 1.6 s, the “Licking latency, 14° day 30 min” value [3, 5] was 14.6 ± 1.5 s and the “Licking latency, 14° day 60 min” value [3, 6] was 13.4 ± 1.7 s. For the same compound, the “Licking latency, Pre test before all treatments” value [3, 7] was 27.8 ± 1.7 s, the “Licking latency, 14° day Pre test” value [3, 8] was 13.2 ± 1.2 s and the “Acute antiallodynic efficacy” value [3] was “no significant effect”.

In the case of `NCC1(CC(=O)O)CCCCC1` [GABAPENTIN, gabapentin], the “Licking latency, 14° day 15 min” value [3, 4] is reported as 13.2 ± 1.8 s, the “Licking latency, 14° day 30 min” value [3, 5] is reported as 13.6 ± 1.2 s and the “Licking latency, 14° day 60 min” value [3, 6] is reported as 13.8 ± 1.8 s. For the same compound, the “Licking latency, Pre test before all treatments” value [3, 7] was 26.8 ± 2.3 s, the “Licking latency, 14° day Pre test” value [3, 8] was 15.4 ± 2.0 s and the “Acute antiallodynic efficacy” value [3] was “no significant effect”.

With `CNC(=O)c1cc(Oc2ccc(NC(=O)Nc3ccc(Cl)c(C(F)(F)F)c3)cc2)ccn1` [SORAFENIB, sorafenib] the “Licking latency, Before all Treatments” value ([2]; group given water + sorafenib 10 mg/kg i.p. once daily 14 days) was 26.9 ± 1.4 s, the “Licking latency, After 14 days of treatment, Pretest” value ([2]; water + sorafenib 10 mg/kg i.p. once daily 14 days) was 14.8 ± 1.3 s and the “Licking latency, After 14 days of treatment, 1 h” value ([2]; water + sorafenib 10 mg/kg i.p. once daily 14 days, 1 h) was 14.3 ± 1.4 s. For the same compound, the “Licking latency, After 14 days of treatment, 4 h” value ([2]; water + sorafenib 10 mg/kg i.p. once daily 14 days, 4 h) was 15.1 ± 1.5 s, the “Licking latency, After 14 days of treatment, 8 h” value ([2]; water + sorafenib 10 mg/kg i.p. once daily 14 days, 8 h) was 16.0 ± 1.1 s and the “Licking latency, After 14 days of treatment, 24 h” value ([2]; water + sorafenib 10 mg/kg i.p. once daily 14 days, 24 h) was 14.0 ± 1.1 s. The “Licking latency, After 14 days of treatment, 48 h” value ([2]; water + sorafenib 10 mg/kg i.p. once daily 14 days, 48 h) was 14.3 ± 1.2 s, the “Licking latency, After 14 days of treatment, 72 h” value ([2]; water + sorafenib 10 mg/kg i.p. once daily 14 days, 72 h) was 15.0 ± 1.0 s and the “Licking latency, Pre test before all treatments” value ([3]; baseline, group given sorafenib 10 mg/kg i.p. + water p.o.) was 28.6 ± 2.1 s. For the same compound, the “Licking latency, 14° day 15 min” value ([3]; sorafenib 10 mg/kg i.p. once daily 14 days, 15 min after water p.o.) was 14.0 ± 1.8 s, the “Licking latency, 14° day 30 min” value ([3]; sorafenib 10 mg/kg i.p. once daily 14 days, 30 min after water p.o.) was 13.6 ± 1.8 s and the “Licking latency, 14° day 60 min” value ([3]; sorafenib 10 mg/kg i.p. once daily 14 days, 60 min after water p.o.) was 14.4 ± 2.3 s. The “Licking latency, 14° day Pre test” value ([3]; sorafenib 10 mg/kg i.p. once daily 14 days, before water p.o.) was 13.8 ± 2.0 s and the “Induction of allodynia by sorafenib (in words)” value ([3]; sorafenib 10 mg/kg i.p. once daily in rats, cold plate, day 14) was “induced an allodynic responses to thermal stimuli”.
